# Laboratory results as given in PubChem BioAssay (NCI).
#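 Method: 48-hour compound exposure of cells in 96-well plates, five concentrations, linear interpolation of endpoints. The concentration for 50% growth inhibition is given as GI50. TGI: total growth inhibition.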
# Legend:
# Experiment in all cases: inhibition of tumour cell growth, NCI panel, 48 h
# NCI-H23 lung = test system: NCI-H23 lung
# HL-60(TB) leukemia = test system: HL-60(TB) leukemia
# M19-MEL melanoma = test system: M19-MEL melanoma
# SK-MEL-5 melanoma = test system: SK-MEL-5 melanoma
# IGROV1 ovarian = test system: IGROV1 ovarian
# ACHN renal = test system: ACHN renal
# HCT-15 colon = test system: HCT-15 colon
# NCI-H522 lung = test system: NCI-H522 lung
# CCRF-CEM leukemia = test system: CCRF-CEM leukemia
# KM20L2 colon = test system: KM20L2 colon
# SW-620 colon = test system: SW-620 colon
# M14 melanoma = test system: M14 melanoma
# SF-295 CNS = test system: SF-295 CNS
# HOP-18 NSCLC = test system: HOP-18 NSCLC
# MALME-3M melanoma = test system: MALME-3M melanoma
# A549 NSCLC = test system: A549 NSCLC
# UO-31 renal = test system: UO-31 renal
# SN12C renal = test system: SN12C renal
# HT29 colon = test system: HT29 colon
# MOLT-4 leukemia = test system: MOLT-4 leukemia
# DMS 273 small cell lung = test system: DMS 273 small cell lung
# 786-0 renal = test system: 786-0 renal
# SF-268 CNS = test system: SF-268 CNS
# HCT-116 colon = test system: HCT-116 colon
# TK-10 renal = test system: TK-10 renal
# OVCAR-4 ovarian = test system: OVCAR-4 ovarian
# UACC-62 melanoma = test system: UACC-62 melanoma
# OVCAR-8 ovarian = test system: OVCAR-8 ovarian
# RXF 393 renal = test system: RXF 393 renal
# UACC-257 melanoma = test system: UACC-257 melanoma
# SR leukemia = test system: SR leukemia
# SK-MEL-28 melanoma = test system: SK-MEL-28 melanoma
# HOP-62 NSCLC = test system: HOP-62 NSCLC
# A498 renal = test system: A498 renal
# RPMI-8226 leukemia = test system: RPMI-8226 leukemia
# NCI-H460 lung = test system: NCI-H460 lung
# SNB-75 CNS = test system: SNB-75 CNS
# LXFL 529 NSCLC = test system: LXFL 529 NSCLC
# SK-OV-3 ovarian = test system: SK-OV-3 ovarian
# SNB-78 CNS = test system: SNB-78 CNS
# OVCAR-3 ovarian = test system: OVCAR-3 ovarian
# OVCAR-5 ovarian = test system: OVCAR-5 ovarian
# K-562 leukemia = test system: K-562 leukemia
# NCI-H226 lung = test system: NCI-H226 lung
# CAKI-1 renal = test system: CAKI-1 renal
# COLO 205 colon = test system: COLO 205 colon
# DMS 114 small cell lung = test system: DMS 114 small cell lung
# U251 CNS = test system: U251 CNS
# HOP-92 NSCLC = test system: HOP-92 NSCLC
# SF-539 CNS = test system: SF-539 CNS
# DLD-1 colon = test system: DLD-1 colon
# LOX IMVI melanoma = test system: LOX IMVI melanoma
# KM12 colon = test system: KM12 colon
# SK-MEL-2 melanoma = test system: SK-MEL-2 melanoma
# HCC-2998 colon = test system: HCC-2998 colon
# SNB-19 CNS = test system: SNB-19 CNS
# EKVX NSCLC = test system: EKVX NSCLC
compound,measurement,setting,value
[CH3][Hg]/[N]=C(/N)NC#N,GI50,NCI-H23 lung,10.2 µM
same,TGI,NCI-H23 lung,24.5 µM
same,GI50,HL-60(TB) leukemia,2.76 µM
same,TGI,HL-60(TB) leukemia,> 100 µM
same,GI50,M19-MEL melanoma,12.1 µM
same,TGI,M19-MEL melanoma,25.2 µM
same,GI50,SK-MEL-5 melanoma,8.9 µM
same,TGI,SK-MEL-5 melanoma,21.1 µM
same,GI50,IGROV1 ovarian,18.9 µM
same,TGI,IGROV1 ovarian,36.6 µM
same,GI50,ACHN renal,13.5 µM
same,TGI,ACHN renal,26.4 µM
same,GI50,HCT-15 colon,3.02 µM
same,TGI,HCT-15 colon,12.1 µM
same,GI50,NCI-H522 lung,1.29 µM
same,TGI,NCI-H522 lung,2.57 µM
same,GI50,CCRF-CEM leukemia,3.65 µM
same,TGI,CCRF-CEM leukemia,> 100 µM
same,GI50,KM20L2 colon,17.3 µM
same,TGI,KM20L2 colon,33.4 µM
same,GI50,SW-620 colon,2.23 µM
same,TGI,SW-620 colon,5.28 µM
same,GI50,M14 melanoma,10.6 µM
same,TGI,M14 melanoma,22.9 µM
same,GI50,SF-295 CNS,18.5 µM
same,TGI,SF-295 CNS,54.5 µM
same,GI50,HOP-18 NSCLC,4.63 µM
same,TGI,HOP-18 NSCLC,17.1 µM
same,GI50,MALME-3M melanoma,2.34 µM
same,TGI,MALME-3M melanoma,4.94 µM
same,GI50,A549 NSCLC,17.3 µM
same,TGI,A549 NSCLC,38.4 µM
same,GI50,UO-31 renal,14.7 µM
same,TGI,UO-31 renal,28 µM
same,GI50,SN12C renal,14 µM
same,TGI,SN12C renal,28.5 µM
same,GI50,HT29 colon,19.9 µM
same,TGI,HT29 colon,50.8 µM
same,GI50,MOLT-4 leukemia,3.73 µM
same,TGI,MOLT-4 leukemia,> 100 µM
same,GI50,DMS 273 small cell lung,13.5 µM
same,TGI,DMS 273 small cell lung,27.5 µM
same,GI50,786-0 renal,10.2 µM
same,TGI,786-0 renal,22.4 µM
same,GI50,SF-268 CNS,16.3 µM
same,TGI,SF-268 CNS,33.3 µM
same,GI50,HCT-116 colon,14.4 µM
same,TGI,HCT-116 colon,27.9 µM
same,GI50,TK-10 renal,3.35 µM
same,TGI,TK-10 renal,14.8 µM
same,GI50,OVCAR-4 ovarian,3.23 µM
same,TGI,OVCAR-4 ovarian,9.31 µM
same,GI50,UACC-62 melanoma,11.4 µM
same,TGI,UACC-62 melanoma,23.9 µM
same,GI50,OVCAR-8 ovarian,3.63 µM
same,TGI,OVCAR-8 ovarian,16.1 µM
same,GI50,RXF 393 renal,1.4 µM
same,TGI,RXF 393 renal,5.13 µM
same,GI50,UACC-257 melanoma,5.1 µM
same,TGI,UACC-257 melanoma,17.4 µM
same,GI50,SR leukemia,4.39 µM
same,TGI,SR leukemia,39.9 µM
same,GI50,SK-MEL-28 melanoma,11.9 µM
same,TGI,SK-MEL-28 melanoma,30.1 µM
same,GI50,HOP-62 NSCLC,19.4 µM
same,TGI,HOP-62 NSCLC,36.6 µM
same,GI50,A498 renal,17.7 µM
same,TGI,A498 renal,31.7 µM
same,GI50,RPMI-8226 leukemia,2.62 µM
same,TGI,RPMI-8226 leukemia,> 100 µM
same,GI50,NCI-H460 lung,25 µM
same,TGI,NCI-H460 lung,88.7 µM
same,GI50,SNB-75 CNS,12.1 µM
same,TGI,SNB-75 CNS,24.4 µM
same,GI50,LXFL 529 NSCLC,1.43 µM
same,TGI,LXFL 529 NSCLC,3.08 µM
same,GI50,SK-OV-3 ovarian,16.9 µM
same,TGI,SK-OV-3 ovarian,30.8 µM
same,GI50,SNB-78 CNS,4.76 µM
same,TGI,SNB-78 CNS,27.1 µM
same,GI50,OVCAR-3 ovarian,2.74 µM
same,TGI,OVCAR-3 ovarian,8.6 µM
same,GI50,OVCAR-5 ovarian,17.1 µM
same,TGI,OVCAR-5 ovarian,31 µM
same,GI50,K-562 leukemia,1.69 µM
same,TGI,K-562 leukemia,> 100 µM
same,GI50,NCI-H226 lung,15.6 µM
same,TGI,NCI-H226 lung,32.5 µM
same,GI50,CAKI-1 renal,12.9 µM
same,TGI,CAKI-1 renal,25.7 µM
same,GI50,COLO 205 colon,1.71 µM
same,TGI,COLO 205 colon,3.09 µM
same,GI50,DMS 114 small cell lung,1.98 µM
same,TGI,DMS 114 small cell lung,3.43 µM
same,GI50,U251 CNS,23.6 µM
same,TGI,U251 CNS,56 µM
same,GI50,HOP-92 NSCLC,1.78 µM
same,TGI,HOP-92 NSCLC,3.84 µM
same,GI50,SF-539 CNS,17.7 µM
same,TGI,SF-539 CNS,32.4 µM
same,GI50,DLD-1 colon,4.27 µM
same,TGI,DLD-1 colon,16.9 µM
same,GI50,LOX IMVI melanoma,3.29 µM
same,TGI,LOX IMVI melanoma,14.9 µM
same,GI50,KM12 colon,16.5 µM
same,TGI,KM12 colon,30 µM
same,GI50,SK-MEL-2 melanoma,3.65 µM
same,TGI,SK-MEL-2 melanoma,26.7 µM
Cc1ccc(NC(=O)CC2SC(=Nc3ccc(Cl)cc3)NC2=O)cc1C (stereo not given),TGI,NCI-H23 lung,35.6 µM
same,TGI,HL-60(TB) leukemia,9.12 µM
same,TGI,M19-MEL melanoma,36.1 µM
same,TGI,SK-MEL-5 melanoma,36.6 µM
same,TGI,IGROV1 ovarian,> 60.8 µM
same,TGI,ACHN renal,29.6 µM
same,TGI,HCT-15 colon,29.3 µM
same,TGI,NCI-H522 lung,18.4 µM
same,TGI,CCRF-CEM leukemia,11 µM
same,TGI,KM20L2 colon,33.5 µM
same,TGI,SW-620 colon,18.5 µM
same,TGI,M14 melanoma,31.2 µM
same,TGI,SF-295 CNS,> 73.3 µM
same,TGI,HOP-18 NSCLC,32.5 µM
same,TGI,MALME-3M melanoma,33.2 µM
same,TGI,A549 NSCLC,34.3 µM
same,TGI,UO-31 renal,32.6 µM
same,TGI,SN12C renal,31.9 µM
same,TGI,HT29 colon,33.2 µM
same,TGI,MOLT-4 leukemia,5.28 µM
same,TGI,DMS 273 small cell lung,34.3 µM
same,TGI,786-0 renal,32 µM
same,TGI,SF-268 CNS,33.4 µM
same,TGI,HCC-2998 colon,33.6 µM
same,TGI,HCT-116 colon,32.9 µM
same,TGI,TK-10 renal,31.1 µM
same,TGI,OVCAR-4 ovarian,35.6 µM
same,TGI,UACC-62 melanoma,32.6 µM
same,TGI,OVCAR-8 ovarian,32.8 µM
same,TGI,RXF 393 renal,32 µM
same,TGI,UACC-257 melanoma,29.4 µM
same,TGI,SR leukemia,29.4 µM
same,TGI,SK-MEL-28 melanoma,33.9 µM
same,TGI,HOP-62 NSCLC,> 100 µM
same,TGI,A498 renal,43.2 µM
same,TGI,RPMI-8226 leukemia,21.2 µM
same,TGI,NCI-H460 lung,18.2 µM
same,TGI,SNB-75 CNS,33.2 µM
same,TGI,LXFL 529 NSCLC,34 µM
same,TGI,SK-OV-3 ovarian,> 66.1 µM
same,TGI,SNB-78 CNS,44.3 µM
same,TGI,OVCAR-3 ovarian,33.2 µM
same,TGI,OVCAR-5 ovarian,33.1 µM
same,TGI,SNB-19 CNS,> 100 µM
same,TGI,K-562 leukemia,> 58.5 µM
same,TGI,NCI-H226 lung,> 64.3 µM
same,TGI,EKVX NSCLC,31.4 µM
same,TGI,CAKI-1 renal,35.9 µM
same,TGI,COLO 205 colon,32.4 µM
same,TGI,DMS 114 small cell lung,42.1 µM
same,TGI,U251 CNS,32.7 µM
same,TGI,HOP-92 NSCLC,27.5 µM
same,TGI,SF-539 CNS,35.4 µM
same,TGI,DLD-1 colon,38.5 µM
same,TGI,LOX IMVI melanoma,33.7 µM
same,TGI,KM12 colon,40.3 µM
same,TGI,SK-MEL-2 melanoma,17.9 µM
